Assay results published in ChEMBL document CHEMBL5137068, “Discovery of Hexahydrofuro[3,2-b]furans as New Kinase-Selective and Orally Bioavailable JAK3 Inhibitors for the Treatment of Leukemia Harboring a JAK3 Activating Mutant” (J Med Chem, 2022).
Calls of active or inactive are those of the source. No cut-off for these calls is given here.

How the values were obtained:
[1] = target: T1, Tyrosine-protein kinase JAK3 (Homo sapiens, UniProt P52333)
T1 sequence (P52333 whole entry): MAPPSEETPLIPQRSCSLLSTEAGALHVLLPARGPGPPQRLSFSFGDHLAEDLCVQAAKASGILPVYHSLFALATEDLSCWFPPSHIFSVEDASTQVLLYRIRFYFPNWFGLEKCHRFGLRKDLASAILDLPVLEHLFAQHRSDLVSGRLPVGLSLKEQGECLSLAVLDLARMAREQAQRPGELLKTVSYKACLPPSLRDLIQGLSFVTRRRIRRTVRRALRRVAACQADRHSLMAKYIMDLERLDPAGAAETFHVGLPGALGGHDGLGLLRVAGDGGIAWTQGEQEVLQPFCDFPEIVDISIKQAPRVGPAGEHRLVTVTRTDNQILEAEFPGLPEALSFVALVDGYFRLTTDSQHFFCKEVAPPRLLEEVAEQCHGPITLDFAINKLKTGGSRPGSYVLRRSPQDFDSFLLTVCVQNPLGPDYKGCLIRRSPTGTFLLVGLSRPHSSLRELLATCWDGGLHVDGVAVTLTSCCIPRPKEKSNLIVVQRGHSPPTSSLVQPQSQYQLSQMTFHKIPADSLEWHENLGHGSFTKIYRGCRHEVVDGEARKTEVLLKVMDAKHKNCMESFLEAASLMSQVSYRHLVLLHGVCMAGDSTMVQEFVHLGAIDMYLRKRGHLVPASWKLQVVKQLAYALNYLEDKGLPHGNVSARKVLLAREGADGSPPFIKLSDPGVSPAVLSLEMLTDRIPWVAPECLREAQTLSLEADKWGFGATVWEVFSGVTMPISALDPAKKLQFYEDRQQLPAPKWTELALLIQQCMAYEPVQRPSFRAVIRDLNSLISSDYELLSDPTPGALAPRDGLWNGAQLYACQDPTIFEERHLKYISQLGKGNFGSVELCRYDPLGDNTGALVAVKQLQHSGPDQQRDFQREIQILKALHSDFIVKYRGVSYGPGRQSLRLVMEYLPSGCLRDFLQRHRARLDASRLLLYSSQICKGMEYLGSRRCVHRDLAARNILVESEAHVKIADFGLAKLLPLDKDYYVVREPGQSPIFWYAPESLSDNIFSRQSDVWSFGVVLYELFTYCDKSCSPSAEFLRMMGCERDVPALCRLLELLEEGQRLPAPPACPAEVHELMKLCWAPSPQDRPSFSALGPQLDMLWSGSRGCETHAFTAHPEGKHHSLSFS
Description: Inhibition of GST tagged recombinant human JAK3 expressed in baculovirus infection system by FRET assay

[2] = target: Receptor-type tyrosine-protein kinase FLT3 (Homo sapiens) (UniProt P36888); assay: Inhibition of human FLT3 at 0.5 uM relative to control
[3] = target: T2, Tyrosine-protein kinase JAK3 (Homo sapiens) (UniProt P52333); assay: Inhibition of human JAK3 at 0.5 uM relative to control
T2 sequence (whole entry): T1 sequence (P52333 whole entry)

[4] = target: Tyrosine-protein kinase JAK1 (Homo sapiens, UniProt P23458); assay: Inhibition of human JAK1
[5] = target: Tyrosine-protein kinase BTK (Homo sapiens) (UniProt Q06187); assay: Inhibition of BTK (unknown origin) at 0.5 uM relative to control
[6] = target: T3, Signal transducer and activator of transcription 5A (Homo sapiens) (UniProt P42229); assay: Inhibition of STAT5 activation in human U-937 cells assessed as decrease in P-STAT5 at 100 uM by Western blot analysis; type: cell-based; details: time 0-24 hrs, TDE = time-dependent effect
T3 sequence (whole entry): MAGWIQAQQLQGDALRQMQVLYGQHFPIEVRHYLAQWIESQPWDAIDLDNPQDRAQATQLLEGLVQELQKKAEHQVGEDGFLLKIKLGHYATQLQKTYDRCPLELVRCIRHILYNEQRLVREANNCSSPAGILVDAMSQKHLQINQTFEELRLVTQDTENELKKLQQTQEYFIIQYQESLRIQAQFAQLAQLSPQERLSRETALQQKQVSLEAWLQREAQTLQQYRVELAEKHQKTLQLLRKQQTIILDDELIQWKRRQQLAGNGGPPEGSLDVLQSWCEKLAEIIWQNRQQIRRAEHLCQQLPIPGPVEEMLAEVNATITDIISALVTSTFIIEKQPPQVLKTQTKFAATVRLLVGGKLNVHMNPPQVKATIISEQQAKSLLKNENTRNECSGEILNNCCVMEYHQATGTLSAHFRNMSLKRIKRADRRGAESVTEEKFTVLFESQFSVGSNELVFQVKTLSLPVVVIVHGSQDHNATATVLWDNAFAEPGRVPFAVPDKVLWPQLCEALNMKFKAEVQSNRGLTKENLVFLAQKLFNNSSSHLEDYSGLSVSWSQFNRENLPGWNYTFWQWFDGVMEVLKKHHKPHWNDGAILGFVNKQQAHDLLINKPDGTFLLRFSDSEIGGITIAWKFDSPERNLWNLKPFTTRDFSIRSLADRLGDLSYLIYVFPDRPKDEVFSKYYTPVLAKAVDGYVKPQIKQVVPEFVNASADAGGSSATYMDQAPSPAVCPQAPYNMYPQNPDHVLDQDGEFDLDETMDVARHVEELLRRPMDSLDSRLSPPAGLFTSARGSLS

[7] = target: T2, Tyrosine-protein kinase JAK3 (Homo sapiens); assay: Inhibition of JAK3 activation in human U-937 cells assessed as decrease in P-STAT5 at 100 uM by Western blot analysis; type: cell-based; details: time 0-24 hrs, TDE = time-dependent effect
[8] = target: T2, Tyrosine-protein kinase JAK3 (Homo sapiens); assay: Inhibition of JAK3 activation in human U-937 cells assessed as decrease in P-STAT5 incubated for 0 to 24 hrs by Western blot analysis; type: cell-based; details: time 0-24 hrs, DDE = dose-dependent effect
[9] = target: T2, Tyrosine-protein kinase JAK3 (Homo sapiens); assay: Inhibition of JAK3 in human U-937 cells assessed as decrease in P-JAK3 phosphorylation at 200 uM pretreated for 10 hrs followed by compound washout by immunoblotting analysis; type: cell-based
U-937 [10] = assay: Induction of cell cycle arrest in human U-937 cells assessed as accumulation at G0/G1 phase at 3.7 nM measured after 24 hrs by propidium iodide staining based flow cytometric analysis (reference value: 62.95%); type: functional
U-937 [11] = assay: Induction of cell cycle arrest in human U-937 cells assessed as accumulation at G0/G1 phase at 300 nM measured after 24 hrs by propidium iodide staining based flow cytometric analysis (reference value: 62.95%); type: functional
U-937 [12] = assay: Induction of cell cycle arrest in human U-937 cells assessed as downregulation of CDK6 at 0 to 300 nM measured after 24 hrs by western blot analysis; type: functional, cell-based; details: dose 0-300 nM
U-937 [13] = assay: Antitumor activity against human U-937 cells xenografted in po dosed CB17-SCID mouse assessed as tumor growth inhibition twice daily for 10 days; type: functional, organism-based; details: time 10.0 day, DDE = dose-dependent effect
[14] = target: Receptor-type tyrosine-protein kinase FLT3 (Homo sapiens) (UniProt P36888); assay: Inhibition of human FLT3 at 0.5 uM assessed as competition rate relative to control
[15] = target: Receptor tyrosine-protein kinase erbB-2 (Homo sapiens) (UniProt P04626); assay: Inhibition of HER2 (unknown origin) at 0.5 uM assessed as competition rate relative to control
BaF3 = assay: cells; details: Mus musculus, BaF3, 72 h
Description: Antiproliferative activity against mouse BaF3 parent cell measured after 72 hrs by CCK-8 assay

Chain of Receptor-type tyrosine-protein kinase FLT3 (Homo sapiens) (P36888 whole entry): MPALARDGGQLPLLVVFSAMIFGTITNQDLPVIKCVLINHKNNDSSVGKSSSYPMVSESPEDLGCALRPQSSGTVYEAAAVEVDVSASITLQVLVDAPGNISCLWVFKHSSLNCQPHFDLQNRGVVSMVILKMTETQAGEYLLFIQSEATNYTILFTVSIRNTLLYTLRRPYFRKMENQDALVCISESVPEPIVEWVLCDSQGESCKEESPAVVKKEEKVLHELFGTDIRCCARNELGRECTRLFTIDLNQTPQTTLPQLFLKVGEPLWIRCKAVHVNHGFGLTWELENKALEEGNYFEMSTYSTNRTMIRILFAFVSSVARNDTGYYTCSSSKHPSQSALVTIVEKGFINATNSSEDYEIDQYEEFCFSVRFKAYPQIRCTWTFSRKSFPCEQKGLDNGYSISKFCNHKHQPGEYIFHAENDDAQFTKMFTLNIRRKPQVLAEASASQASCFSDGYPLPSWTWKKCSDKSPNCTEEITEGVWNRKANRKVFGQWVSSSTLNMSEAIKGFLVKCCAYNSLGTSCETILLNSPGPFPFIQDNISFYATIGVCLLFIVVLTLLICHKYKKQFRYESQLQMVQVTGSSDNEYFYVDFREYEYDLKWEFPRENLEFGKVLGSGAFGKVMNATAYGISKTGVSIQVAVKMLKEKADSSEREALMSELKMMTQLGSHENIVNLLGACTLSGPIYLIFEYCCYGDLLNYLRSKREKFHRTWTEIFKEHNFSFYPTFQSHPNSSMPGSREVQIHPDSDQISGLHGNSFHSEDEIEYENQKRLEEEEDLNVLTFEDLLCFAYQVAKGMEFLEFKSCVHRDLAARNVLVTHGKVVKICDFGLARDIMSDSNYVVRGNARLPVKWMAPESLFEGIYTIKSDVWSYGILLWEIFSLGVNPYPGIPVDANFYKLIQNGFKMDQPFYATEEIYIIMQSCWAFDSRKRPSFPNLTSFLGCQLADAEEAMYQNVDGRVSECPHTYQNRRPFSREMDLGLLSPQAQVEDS
Chain of Tyrosine-protein kinase BTK (Homo sapiens) (Q06187 whole entry): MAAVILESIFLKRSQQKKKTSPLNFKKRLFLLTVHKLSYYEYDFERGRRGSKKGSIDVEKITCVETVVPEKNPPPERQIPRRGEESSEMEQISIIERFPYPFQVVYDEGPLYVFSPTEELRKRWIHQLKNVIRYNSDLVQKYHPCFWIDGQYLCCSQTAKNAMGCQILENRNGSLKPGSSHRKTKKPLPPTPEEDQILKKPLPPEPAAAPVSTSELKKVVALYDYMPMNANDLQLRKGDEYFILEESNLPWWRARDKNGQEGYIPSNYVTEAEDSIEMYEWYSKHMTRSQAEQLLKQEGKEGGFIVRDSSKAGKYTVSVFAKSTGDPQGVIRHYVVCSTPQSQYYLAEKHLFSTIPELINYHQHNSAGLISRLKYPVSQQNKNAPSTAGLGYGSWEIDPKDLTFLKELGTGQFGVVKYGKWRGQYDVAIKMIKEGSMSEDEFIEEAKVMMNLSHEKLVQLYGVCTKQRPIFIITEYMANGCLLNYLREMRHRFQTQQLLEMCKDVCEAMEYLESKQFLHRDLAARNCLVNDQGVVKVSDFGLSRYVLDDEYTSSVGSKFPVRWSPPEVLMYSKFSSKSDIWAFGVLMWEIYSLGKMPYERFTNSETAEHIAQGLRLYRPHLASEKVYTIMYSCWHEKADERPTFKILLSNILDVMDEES
Chain of Receptor tyrosine-protein kinase erbB-2 (Homo sapiens) (P04626 whole entry): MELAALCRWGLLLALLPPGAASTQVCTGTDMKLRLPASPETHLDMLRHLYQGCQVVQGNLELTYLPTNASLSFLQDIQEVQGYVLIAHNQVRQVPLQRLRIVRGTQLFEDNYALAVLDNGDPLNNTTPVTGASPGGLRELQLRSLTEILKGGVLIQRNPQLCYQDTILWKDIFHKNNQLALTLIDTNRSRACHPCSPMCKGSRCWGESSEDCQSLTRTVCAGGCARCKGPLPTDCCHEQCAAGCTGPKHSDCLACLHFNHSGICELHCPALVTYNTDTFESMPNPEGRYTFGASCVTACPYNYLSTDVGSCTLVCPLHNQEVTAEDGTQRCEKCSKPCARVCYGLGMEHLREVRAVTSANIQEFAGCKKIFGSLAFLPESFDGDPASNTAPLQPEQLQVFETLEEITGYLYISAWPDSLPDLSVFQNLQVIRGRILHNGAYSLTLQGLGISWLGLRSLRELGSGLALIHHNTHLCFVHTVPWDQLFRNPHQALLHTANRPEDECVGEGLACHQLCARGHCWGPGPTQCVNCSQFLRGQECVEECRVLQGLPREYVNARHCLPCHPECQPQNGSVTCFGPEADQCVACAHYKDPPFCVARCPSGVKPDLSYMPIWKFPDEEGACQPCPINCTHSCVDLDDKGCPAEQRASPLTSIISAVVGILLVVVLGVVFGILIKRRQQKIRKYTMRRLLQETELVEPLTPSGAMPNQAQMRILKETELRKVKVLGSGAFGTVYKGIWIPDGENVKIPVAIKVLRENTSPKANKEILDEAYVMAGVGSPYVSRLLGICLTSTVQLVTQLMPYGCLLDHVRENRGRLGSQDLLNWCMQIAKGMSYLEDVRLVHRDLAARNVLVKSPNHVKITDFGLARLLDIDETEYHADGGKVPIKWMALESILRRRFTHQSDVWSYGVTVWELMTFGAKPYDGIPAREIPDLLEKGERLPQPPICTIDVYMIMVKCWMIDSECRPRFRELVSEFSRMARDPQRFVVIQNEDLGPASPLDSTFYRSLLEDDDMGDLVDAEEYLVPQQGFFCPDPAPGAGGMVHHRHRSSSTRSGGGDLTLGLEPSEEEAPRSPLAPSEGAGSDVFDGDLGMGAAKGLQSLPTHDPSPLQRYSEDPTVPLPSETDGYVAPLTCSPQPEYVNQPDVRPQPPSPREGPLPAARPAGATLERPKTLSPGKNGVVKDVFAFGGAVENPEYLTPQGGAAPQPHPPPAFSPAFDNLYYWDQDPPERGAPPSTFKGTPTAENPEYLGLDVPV
Chain of Tyrosine-protein kinase JAK1 (P23458 whole entry): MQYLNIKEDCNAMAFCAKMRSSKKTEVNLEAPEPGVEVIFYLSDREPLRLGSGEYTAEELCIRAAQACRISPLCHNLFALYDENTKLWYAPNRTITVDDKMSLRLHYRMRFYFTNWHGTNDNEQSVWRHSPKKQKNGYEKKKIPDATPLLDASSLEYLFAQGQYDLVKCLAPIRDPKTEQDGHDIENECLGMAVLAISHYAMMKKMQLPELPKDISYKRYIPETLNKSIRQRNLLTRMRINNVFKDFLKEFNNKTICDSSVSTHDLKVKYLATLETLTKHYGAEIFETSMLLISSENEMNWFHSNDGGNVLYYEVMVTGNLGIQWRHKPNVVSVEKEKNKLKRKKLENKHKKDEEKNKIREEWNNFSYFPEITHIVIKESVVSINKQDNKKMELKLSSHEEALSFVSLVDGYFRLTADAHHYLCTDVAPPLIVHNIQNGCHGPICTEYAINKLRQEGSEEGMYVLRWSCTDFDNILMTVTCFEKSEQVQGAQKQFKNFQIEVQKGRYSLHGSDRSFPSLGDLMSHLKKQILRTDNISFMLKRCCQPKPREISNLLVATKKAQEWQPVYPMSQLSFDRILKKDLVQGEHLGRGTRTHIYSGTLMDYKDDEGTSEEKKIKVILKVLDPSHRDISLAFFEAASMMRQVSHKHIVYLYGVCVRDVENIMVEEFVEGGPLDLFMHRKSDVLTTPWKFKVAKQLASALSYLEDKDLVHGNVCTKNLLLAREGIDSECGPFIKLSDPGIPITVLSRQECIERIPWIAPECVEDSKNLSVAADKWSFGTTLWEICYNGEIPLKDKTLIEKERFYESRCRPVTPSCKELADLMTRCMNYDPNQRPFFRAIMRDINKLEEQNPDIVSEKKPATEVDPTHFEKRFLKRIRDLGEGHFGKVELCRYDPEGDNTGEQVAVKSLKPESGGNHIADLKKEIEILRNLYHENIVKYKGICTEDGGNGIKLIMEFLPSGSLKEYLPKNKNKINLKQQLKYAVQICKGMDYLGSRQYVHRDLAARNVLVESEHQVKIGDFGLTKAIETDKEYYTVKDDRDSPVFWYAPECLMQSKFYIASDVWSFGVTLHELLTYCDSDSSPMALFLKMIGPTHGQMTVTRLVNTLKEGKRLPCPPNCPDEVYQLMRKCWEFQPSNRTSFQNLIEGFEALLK

IC50 [1]: 1.2 nM
inhibition [2]: 23%
inhibition [3]: 9%
IC50 [4]: 4730 nM
inhibition [5]: 114%
inhibition [6]: Tde
inhibition [7]: Tde
inhibition [8]: Dde
inhibition [9]: Active
inhibition [14]: 70%
inhibition [15]: 40%
IC50 (BaF3): 165 nM
Compound: C=CC(=O)Nc1cc(Nc2ncc(Cl)c(O[C@@H]3CO[C@H]4[C@@H]3OC[C@H]4OC)n2)ccc1N(C)CCN(C)C
Activity (U-937 [10]): 61.57%
Activity (U-937 [11]): 76.88%
Activity (U-937 [12]): Active
Activity (U-937 [13]): Dde
